Bridge positions count the residues as written; N and C are the ends. Square brackets hold non-standard residues; d marks the D form. Peptide text beside a SMILES is read from it. R8 = C=CCCCCCC[C@@](C)(N)C(=O)O; Cha = N[C@@H](CC1CCCCC1)C(=O)O; hLeu = CC(C)CC[C@H](N)C(=O)O; S5 = C=CCCC[C@](C)(N)C(=O)O; Nle = CCCC[C@H](N)C(=O)O; Ac3c = NC1(C(=O)O)CC1; Aib = CC(C)(N)C(=O)O
Test system: SJSA-1 cells
Assay: Cell lysis by peptidomimetic macrocycles (LDH release)
Type: cell-based
Conditions: SJSA-1, 1 h
Procedure: SJSA-1 cells were plated out one day in advance in clear flat-bottom plates (Costar, catalog number 353072) at 7500 cells/well with 100 ul/well of growth media, leaving row H columns 10-12 empty for media alone. On the day of the assay, media was exchanged with RPMI 1% FBS media, 90 uL of media per well.
10 mM stock solutions of the peptidomimetic macrocycles were prepared in 100% DMSO. Peptidomimetic macrocycles were then diluted serially in 100% DMSO, and then further diluted 20-fold in sterile water to prepare working stock solutions in 5% DMSO/water of each peptidomimetic macrocycle at concentrations ranging from 500 μM to 62.5 μM.
10 μL of each compound was added to the 90 uL of SJSA-1 cells to yield final concentrations of 50 μM to 6.25 μM in 0.5% DMSO-containing media. The negative control (non-lytic) sample was 0.5% DMSO alone and positive control (lytic) samples include 10 μM Melittin and 1% Triton X-100.
Cell plates were incubated for 1 hour at 37° C. After the 1 hour incubation, the morphology of the cells is examined by microscope and then the plates were centrifuged at 1200 rpm for 5 minutes at room temperature. 40 μL of supernatant for each peptidomimetic macrocycle and control sample is transferred to clear assay plates. LDH release is measured using the LDH cytotoxicity assay kit from Caymen, catalog #1000882.

| SMILES | 6.25 μM % Lysed cells (1 h LDH) [%] | 25 μM % Lysed cells (1 h LDH) [%] | 50 μM % Lysed cells (1 h LDH) [%] |
| --- | --- | --- | --- |
| CCCC[C@H](NC(=O)[C@H](C)NC(=O)[C@H](CO)NC(=O)[C@]1(C)CCCC=CCCCCCC[C@@](C)(NC(=O)[C@H](Cc2ccccc2)NC(=O)[C@@H](NC(=O)[C@H](CC(C)C)NC(C)=O)[C@@H](C)O)C(=O)N[C@@H](C)C(=O)N[C@@H](Cc2ccc(O)cc2)C(=O)N[C@@H](Cc2c[nH]c3ccccc23)C(=O)N[C@@H](C)C(=O)N[C@@H](CCC(N)=O)C(=O)N[C@@H](CC(C)C)C(=O)N1)C(N)=O [compound 3] (Ac-LTF[R8]AYWAQL[S5]SA[Nle]-NH2; staple 4-11) | 1 | 1 | 3 |
| CC(=O)N[C@@H](Cc1ccccc1)C(=O)N[C@]1(C)CCCCCCC=CCCC[C@@](C)(C(=O)N[C@@H](Cc2c[nH]cn2)C(=O)N[C@@H](CCCNC(=N)N)C(=O)N[C@@H](Cc2ccccc2)C(=O)N[C@@H](CC2CCCCC2)C(N)=O)NC(=O)[C@H](CC(C)C)NC(=O)[C@H](CCC(N)=O)NC(=O)[C@H](Cc2c[nH]cn2)NC(=O)[C@H](Cc2c[nH]c3ccccc23)NC(=O)[C@H](Cc2c[nH]cn2)NC(=O)[C@H](Cc2c[nH]cn2)NC1=O [compound 55] (Ac-F[R8]HHWHQL[S5]HRF[Cha]-NH2; staple 2-9) | 1 | 9 | 13 |
| CC[C@H](C)[C@H](NC(=O)[C@H](C)NC(=O)[C@H](C)NC(=O)[C@]1(C)CCCC=CCCCCCC[C@@](C)(NC(=O)[C@H](Cc2ccccc2)NC(=O)[C@@H](NC(=O)[C@H](CC(C)C)NC(C)=O)[C@@H](C)O)C(=O)N[C@@H](CCC(=O)O)C(=O)N[C@@H](Cc2ccc(O)cc2)C(=O)N[C@@H](Cc2c[nH]c3ccccc23)C(=O)N[C@@H](C)C(=O)N[C@@H](CCC(N)=O)C(=O)N[C@@H](CC(C)C)C(=O)N1)C(=O)N[C@H](C)C(N)=O (single isomer, unassigned) [compound 217] | 2 | 1 | 2 |
| CC[C@H](C)[C@H](NC(=O)[C@H](C)NC(=O)[C@H](C)NC(=O)[C@]1(C)CCCC=CCCCCCC[C@@](C)(NC(=O)[C@H](Cc2ccccc2)NC(=O)[C@@H](NC(=O)[C@H](CC(C)C)NC(C)=O)[C@@H](C)O)C(=O)N[C@@H](C)C(=O)N[C@@H](Cc2ccc(O)cc2)C(=O)N[C@@H](Cc2c[nH]c3ccccc23)C(=O)N[C@@H](C)C(=O)N[C@@H](CCC(N)=O)C(=O)N[C@@H](CC(C)C)C(=O)N1)C(=O)N[C@H](CC(C)C)C(N)=O (single isomer, unassigned) [compound 82] | 0 | 0 | 1 |
| CC(=O)N[C@@H](Cc1ccccc1)C(=O)N[C@]1(C)CCCCCCC=CCCC[C@@](C)(C(=O)N[C@@H](C)C(=O)N[C@@H](C)C(=O)N[C@@H](Cc2ccccc2)C(N)=O)NC(=O)[C@H](CC(C)C)NC(=O)C2(CC2)NC(=O)[C@H](CCC(=O)O)NC(=O)[C@H](Cc2c[nH]c3ccccc23)NC(=O)[C@H](Cc2ccc(O)cc2)NC(=O)[C@H](C)NC1=O [compound 18] (Ac-F[R8]AYWE[Ac3c]L[S5]AAF-NH2; staple 2-9) | 0 | 2 | 4 |
| CC(=O)N[C@@H](CC(C)C)C(=O)N[C@H](C(=O)N[C@@H](Cc1ccccc1)C(=O)N[C@]1(C)CCCCCCC=CCCC[C@@](C)(C(=O)N[C@@H](C)C(=O)N[C@@H](C)C(=O)NC(C)(C)C(=O)N[C@@H](C)C(N)=O)NC(=O)[C@H](CC(C)C)NC(=O)[C@H](CCC(N)=O)NC(=O)[C@H](C)NC(=O)[C@H](Cc2c[nH]c3ccccc23)NC(=O)[C@H](Cc2ccc(O)cc2)NC(=O)[C@H](C)NC1=O)[C@@H](C)O (single isomer, unassigned) [compound 232] | 6 | 5 | 5 |
| CC(=O)N[C@@H](Cc1c[nH]cn1)C(=O)N[C@@H](CC(C)C)C(=O)N[C@H](C(=O)N[C@@H](Cc1ccccc1)C(=O)N[C@]1(C)CCCCCCC=CCCC[C@@](C)(C(=O)N[C@@H](C)C(=O)N[C@@H](C)C(=O)N[C@@H](CCC(C)C)C(=O)N[C@@H](C)C(N)=O)NC(=O)[C@H](CC(C)C)NC(=O)[C@H](CCC(N)=O)NC(=O)[C@H](Cc2c[nH]cn2)NC(=O)[C@H](Cc2c[nH]c3ccccc23)NC(=O)[C@H](Cc2c[nH]cn2)NC(=O)[C@H](Cc2c[nH]cn2)NC1=O)[C@@H](C)O [compound 32] (Ac-HLTF[R8]HHWHQL[S5]AA[hLeu]A-NH2; staple 5-12) | 0 | 2 | 0 |
| CC[C@H](C)[C@H](NC(=O)[C@H](C)NC(=O)[C@H](C)NC(=O)[C@]1(C)CCCC=CCCCCCC[C@@](C)(NC(=O)[C@H](Cc2ccccc2)NC(=O)[C@@H](NC(=O)[C@H](CC(C)C)NC(C)=O)[C@@H](C)O)C(=O)N[C@@H](CCC(=O)O)C(=O)N[C@@H](Cc2ccc(C(=O)O)cc2)C(=O)N[C@@H](Cc2c[nH]c3cc(Cl)ccc23)C(=O)N[C@@H](C)C(=O)N[C@@H](CCC(N)=O)C(=O)N[C@@H](CC2CCC2)C(=O)N1)C(=O)N[C@H](C)C(N)=O (single isomer, unassigned) [compound 335] | 0 | 0 | 1 |
| CC[C@H](C)[C@H](NC(=O)[C@H](C)NC(=O)[C@H](C)NC(=O)[C@]1(C)CCCC=CCCCCCC[C@@](C)(NC(=O)[C@H](Cc2ccccc2)NC(=O)[C@@H](NC(=O)[C@H](CC(C)C)NC(C)=O)[C@@H](C)O)C(=O)N[C@@H](CCC(=O)O)C(=O)N[C@@H](Cc2ccc(C(=O)O)cc2)C(=O)N[C@@H](Cc2c[nH]c3cc(Cl)ccc23)C(=O)N[C@@H](C)C(=O)N[C@@H](CCC(N)=O)C(=O)N[C@@H](CC2CCC2)C(=O)N1)C(=O)N[C@H](C)C(N)=O (single isomer, unassigned) [compound 336] | 0 | 0 | 0 |
| CC(=O)N[C@@H](CC(C)C)C(=O)N[C@H](C(=O)N[C@@H](Cc1ccccc1)C(=O)N[C@]1(C)CCCCCCC=CCCC[C@@](C)(C(=O)N[C@@H](CO)C(=O)N[C@@H](C)C(=O)N[C@@H](C)C(N)=O)NC(=O)[C@H](CC(C)C)NC(=O)[C@H](CCC(N)=O)NC(=O)[C@H](C)NC(=O)[C@H](Cc2c[nH]c3ccccc23)NC(=O)[C@H](Cc2ccc(C(=O)O)cc2)NC(=O)[C@H](C)NC1=O)[C@@H](C)O (single isomer, unassigned) [compound 169] | 2 | 3 | 7 |
| CC(C)CC[C@@H]1NC(=O)[C@H](CCC(N)=O)NC(=O)[C@H](C)NC(=O)[C@H](Cc2c[nH]c3ccccc23)NC(=O)[C@H](Cc2ccc(O)cc2)NC(=O)[C@H](CCC(=O)O)NC(=O)[C@](C)(NC(=O)[C@H](Cc2ccccc2)NC(=O)[C@@H](NC(=O)[C@H](CC(C)C)NC(=O)C(C)(C)C)[C@@H](C)O)CCCCCCC=CCCC[C@@](C)(C(=O)N[C@@H](CO)C(=O)N[C@@H](C)C(=O)N[C@@H](C)C(N)=O)NC1=O [compound 284] | 5 | 5 | 6 |
| CC(=O)N[C@@H](CCC(=O)O)C(=O)N[C@H](C(=O)N[C@@H](Cc1ccccc1)C(=O)N[C@]1(C)CCCCCCC=CCCC[C@@](C)(C(=O)N[C@@H](C)C(=O)N[C@@H](C)C(=O)N[C@@H](C)C(=O)N[C@@H](C)C(=O)N[C@@H](C)C(=O)N[C@H](C)C(N)=O)NC(=O)[C@H](CC(C)C)NC(=O)[C@H](CCC(N)=O)NC(=O)[C@H](C)NC(=O)[C@H](Cc2c[nH]c3ccccc23)NC(=O)[C@H](Cc2ccc(O)cc2)NC(=O)[C@H](CCC(=O)O)NC1=O)[C@@H](C)O (single isomer, unassigned) [compound 340] | 0 | 0 | 0 |
| CC(=O)N[C@@H](CC(C)C)C(=O)N[C@H](C(=O)N[C@@H](Cc1ccccc1)C(=O)N[C@]1(C)CCCCCCC=CCCC[C@@](C)(C(=O)N[C@@H](C)C(=O)N[C@H](C(=O)NCC(N)=O)C(C)C)NC(=O)[C@H](CC(C)C)NC(=O)[C@H](CCC(N)=O)NC(=O)[C@H](C)NC(=O)[C@H](Cc2c[nH]c3ccccc23)NC(=O)[C@H](Cc2ccc(O)cc2)NC(=O)[C@H](C)NC1=O)[C@@H](C)O (single isomer, unassigned) [compound 108] | 0 | 0 | 1 |
| CC(=O)N[C@@H](Cc1ccccc1)C(=O)N[C@]1(C)CCCCCCC=CCCC[C@@](C)(C(=O)N[C@@H](C)C(=O)N[C@@H](C)C(=O)NC(C)(C)C(N)=O)NC(=O)[C@H](CC(C)C)NC(=O)C2(CC2)NC(=O)[C@H](CCC(=O)O)NC(=O)[C@H](Cc2c[nH]c3ccccc23)NC(=O)[C@H](Cc2ccc(O)cc2)NC(=O)[C@H](C)NC1=O [compound 22] (Ac-F[R8]AYWE[Ac3c]L[S5]AA[Aib]-NH2; staple 2-9) | 0 | 0 | 0 |
